{"source": "patent US11584712B2", "about": "“Alkylamine-substituted perthiocarbamates as dual precursors to hydropersulfide and carbonyl sulfide” (The Johns Hopkins University, priority 2020, dated 2023)", "key": {"[1]": {"experiment": "COS release using membrane inlet mass spectrometry (MIMS)", "type": "physicochemical", "conditions": "precursor 50 μM, NAC 0.25 mM (5 equiv.), pH 7.4 phosphate buffer saline with DTPA, 37° C.", "experimental": "(§1) COS was analyzed using a Hiden HPR-40 MIMS system with a sample cell and membrane probe that have been optimized to detect gases dissolved in aqueous solution as described previously. Cline et al., 2011. A stock solution of N-acetyl-cysteine (25 mM) was prepared in DI water. RSSH precursor stock solutions (5 mM) were prepared in DMSO. These solutions were degassed by purging with nitrogen for 10 min before COS release analysis. Typically, 20 mL phosphate buffer solution (10 mM) was added to the sample cell, degassed and purged with a continuous flow of argon for 15 min. N-acetyl cysteine (200 μL, 25 mM) and RSSH precursor (200 μL, 5 mM) were then injected using a gas tight syringe and ion current at m/z 60 (COS^+) were collected for 2 h (source pressure was approximately 1×10^−7 to 5×10^−7 Torr).\nas §1, with “(COS*)” for “(COS^+)”"}, "[2]": {"experiment": "Stability and intermolecular reactivity of control compound 8 by UPLC-MS", "type": "physicochemical", "conditions": "100 μM, 37° C.", "experimental": "FIG. 11 is an UPLC-MS chromatogram of 8 (100 μM) incubated in pH 7.4 ammonium bicarbonate buffer at 37° C. Aliquots taken at various times were quenched with 1% formic acid and analyzed by UPLC-MS.\nAliquots (200 μL) were taken at specified time points, quenched with 1% formic acid (200 μL) and analyzed using UPLC-MS.\nFIG. 13 is UPLC-MS chromatograms of control compound 8 (100 μM) reaction with NAC (500 μM) in pH 7.4 ammonium bicarbonate (50 mM) with the metal chelator DTPA (100 μM) at 37° C. Aliquots (200 μL) were taken at specified time points, quenched with 1% formic acid (200 μL) and analyzed using UPLC-MS;"}, "H9c2 cells": {"tested_on": "H9c2 cells", "experiment": "H9c2 cell protection from H2O2-mediated oxidative stress, SYTOX Green nucleic acid stain", "type": "cell-based, rat", "conditions": "2 h pretreatment (150 μM for 8), then H2O2 200 μM", "experimental": "Cells were seeded at a density of 1×10^4 cells/well. After 24 h, precursor 7b or byproduct 2b is added in 20 μL volumes using DMSO: H2O (<0.01% DMSO). Cells were incubated for 2 h before media was removed and the cells gently washed with PBS (pH 7.4). Then, 180 μL of fresh media and 20 μL H2O2 diluted in H2O were added before cells were incubated for an additional 1 h. After removing this media, 100 μL of media containing 3 μM SYTOX™ Green nucleic acid stain was added, and the cells incubated for 2 h before fluorescence readings were obtained at 485Ex/538Em (Step 1). Finally, an additional 100 μL of media containing 3 μM SYTOX™ and 0.2% Triton X-100 was added in order to permeabilize all cells and incubated for 1 h before fluorescence values measured (Step 2). The relative % cells surviving was calculated as a 100% minus the ratio of the fluorescence value of Step 1 over Step 2 (% cells surviving=100%−(FL538 (Step 1)/FL538 (Step 2)). Fluorescence values for vehicle-treated, non-H2O2-exposed wells were treated as background cell death and this value is added to the % cell survival for each subsequent group.\nSee Hofgaard et al., 2006, for general procedures. […] After removing this media, 100 μL of media containing 3 μM SYTOX® Green nucleic acid stain was added, and the cells incubated for 2 h before fluorescence readings were obtained at 485Ex/538Em (Step 1). […]"}}, "note": "Entries after “also recorded” stand apart in the source; their conditions may differ.", "data": [{"smiles": "CCCN(C)C(=O)SSC(C)(C)C(NC(C)=O)C(=O)OC", "note": "(centres unmarked) [control compound 8, Methyl 2-acetamido-3-methyl-3-((methyl(propyl)carbamoyl)disulfaneyl)butanoate]", "values": [{"measurement": "COS release (m/z=60 signal)", "setting": "[1]", "result": "Relatively slow COS release"}, {"measurement": "RSSH release via intermolecular reaction with thiol", "setting": "[2]; NAC 500 μM, pH 7.4 ammonium bicarbonate buffer", "result": "does not release RSSH via intermolecular reactions"}, {"measurement": "reaction with n-butylamine (RSSH release via intermolecular reaction)", "setting": "[2]; n-BuNH2 500 μM (5 equiv.), pH 7.4 ammonium bicarbonate:acetonitrile (9:1), at least over 2 h", "result": "no reactivity; also recorded: lack of reaction"}, {"measurement": "stability / RSSH release at pH 7.4", "setting": "[2]; pH 7.4 ammonium bicarbonate buffer", "result": "No RSSH release; also recorded: stable under these conditions and does not produce RSSH"}, {"measurement": "protection against H2O2-mediated toxicity (SYTOX)", "setting": "H9c2 cells", "result": "protective effects against H2O2-mediated toxicity, but to a lesser extent compared with 7b"}]}]}
